Assay results as given in patent US7019034B2, “Compositions and methods for reducing serum glucose and triglyceride levels in diabetic mammals” (Allergan, Inc., priority 2003, dated 2006).

Key:
young db/db mice = experiment: serum thyroxine (T4) in young db/db mice, 14 days oral dosing; format: in vivo
Protocol: In another study the efficacy of RXR agonists in the prevention of diabetes was tested in young db/db mice. […] Serum samples were analyzed by using commercially available kits from Boehring Manheim for their thyroxine (T4) levels in a Boehringer Manheim Hatachi Clinical Chemistry Analyzer as described in the reference manual of Boehringer Mannheim Corporation, 9115 Hague Road, Indianapolis, Ind., USA, expressly incorporated herein.

RARβ = target: T1, RARβ (Homo sapiens, UniProt P10826); experiment: chimeric receptor transactivation assay, RARβ; format: cell-based; settings: for EC50: NA = not active at all as an agonist, read-out: RAR Trans. EC50 β; for RAR β efficacy in percentage as compared to the standard compound: number in brackets
T1 sequence (P10826 183-417 limits assumed): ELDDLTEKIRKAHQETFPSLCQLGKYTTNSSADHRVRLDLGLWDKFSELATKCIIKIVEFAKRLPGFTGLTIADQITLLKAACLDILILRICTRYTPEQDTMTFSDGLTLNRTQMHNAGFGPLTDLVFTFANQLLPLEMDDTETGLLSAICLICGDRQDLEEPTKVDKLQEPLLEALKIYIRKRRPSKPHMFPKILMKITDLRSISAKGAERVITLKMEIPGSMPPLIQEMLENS
Excerpt: The specification of U.S. Pat. No. 5,455,265 is hereby expressly incorporated by reference.
Table 1 discloses the activity of certain exemplary compounds of the invention in the above-described receptor transactivation and binding assays. Particularly, the transactivation data pertaining to activation of the RAR receptors were obtained in the chimeric assay, and the transactivation data pertaining to the activation of RXR receptors were obtained in the holoreceptor assay.
Efficacy in a transactivation assay is expressed as a percentage of the maximum potency attained by the compound compared to a standard which, in this case, is the compound named (2E,4E,1′S,2′S)-3-methyl-5-[2′-methyl-2′-(5,5,8,8-tetramethyl-5,6,7,8-tetrahydro-naphthalen-2-yl)-cyclopropyl]-penta-2,4-dienoic acid.
(§1) In Table 1 NA stands for not active at all as an agonist. ND stands for not determined. The first row of numbers pertaining to each compound is the measured EC50 number. […] The third row of numbers pertaining to each compound is the binding Ki number.

RXRβ [1] = target: T2, RXRβ (UniProt P28704); experiment: holoreceptor transactivation assay, RXRβ; format: cell-based; settings: for RXR β efficacy in percentage as compared to the standard compound / EC50: holoreceptor assay; for RXR β efficacy in percentage as compared to the standard compound: number in brackets; for EC50: read-out: RXR Trans. EC50 β; for efficacy in activating RXRβ compared with RXRα and RXRγ subtypes (in words): transactivation, Table 1
T2 sequence (P28704 1-520): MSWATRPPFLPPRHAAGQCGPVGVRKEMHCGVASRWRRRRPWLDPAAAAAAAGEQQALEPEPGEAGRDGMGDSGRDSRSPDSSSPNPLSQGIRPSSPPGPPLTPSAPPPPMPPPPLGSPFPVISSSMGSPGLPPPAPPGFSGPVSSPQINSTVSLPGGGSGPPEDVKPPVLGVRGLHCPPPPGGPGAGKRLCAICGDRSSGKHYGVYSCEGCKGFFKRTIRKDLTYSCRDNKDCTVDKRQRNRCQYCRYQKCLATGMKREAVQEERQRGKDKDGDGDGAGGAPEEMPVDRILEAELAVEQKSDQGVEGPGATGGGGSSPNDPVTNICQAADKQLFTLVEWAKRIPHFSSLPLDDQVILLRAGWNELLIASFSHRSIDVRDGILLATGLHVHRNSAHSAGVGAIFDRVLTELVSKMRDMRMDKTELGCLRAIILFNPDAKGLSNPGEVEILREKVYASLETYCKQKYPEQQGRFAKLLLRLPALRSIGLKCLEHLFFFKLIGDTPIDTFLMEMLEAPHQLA
Excerpt: The results obtained in this assay are expressed in EC50 numbers, as they are also in the chimeric receptor transactivation assay. The results of the ligand binding assay are expressed in Ki numbers.
Particularly, the transactivation data pertaining to activation of the RAR receptors were obtained in the chimeric assay, and the transactivation data pertaining to the activation of RXR receptors were obtained in the holoreceptor assay.
as §1

diabetic db/db mice = experiment: serum triglycerides in diabetic db/db mice, 7 days oral dosing; format: in vivo; settings: for Triglycerides: 50 mg/kg once daily oral gavage, mean +/- SD
Protocol: Effects of RXR agonists on serum glucose and triglyceride were studied in diabetic db/db mice. […] Briefly, animals were dosed once daily by oral gavage using corn oil vehicle for a period of 7 consecutive days. Serum samples were collected on day 1 (first day of dosing) and day 7 at hour 0 (immediately prior to dosing) and hour 3 (approximately 3 hours after dosing). Serum glucose and triglyceride levels of these samples were measured as described in the reference manuals: Glucose/HK. Boehringer Mannheim Corporation, 9115 Hague Road, Indianapolis, Ind., USA and Triglycerides/GPO. Roche Diagnostics Corporation, 9115 Hague Road, Indianapolis, Ind., USA, expressly incorporated herein. Only those animals with glucose levels of higher than 300 mg/dl at 0 hour on day 1 were considered as diabetic and included in data analysis.
A measured amount of dosing solution was withdrawn into a metal feeding tube attached to a marked syringe. Animals were restrained by grasping of their back skin while the feeding tube was gently inserted into their mouth and into esophagus. A fixed amount of the dosing solution was displaced into the esophagus/stomach of the animal by pushing the plunger of the syringe. Serum samples were collected from the retro-orbital sinus while the animals were anesthetized. These samples were analyzed by using commercially available kits from Boehringer Manheim for their glucose levels and Roche Diagnostics for their triglyceride levels in a Boehringer Manheim Hatachi Clinical Chemistry Analyzer.
For glucose assay, an enzymatic reaction using hexokinase and glucose-6-phosphodehydrogenase to catalyze glucose to gluconate-6phosphate and NADPH was employed. The amount of NADPH formed during these reactions was equivalent to the amount of glucose in the serum and was measured with a spectrophotometer. For triglycerides, a series of enzymatic reactions which included lipase, glycerol kinase and glycerol phosphate oxidase to formed dihydroacetone phosphate and peroxidase. The peroxidase produced catalyzed a reaction between peroxide and 4-aminophenazone and 4-chlorophenol in a Trinder reaction to generate a color change. This color change was measured by a spectrophotometer and reflected the amount of triglyceride in the sample.

RXRβ [2] = target: T2, RXRβ; experiment: ligand binding assay, RXRβ; settings: read-out: RXR Bind Ki β
Excerpt: A holoreceptor transactivation assay and a ligand binding assay which measure the antagonist/agonist like activity of the compounds of the invention, or their ability to bind to the several retinoid receptor subtypes, respectively, are described in published PCT Application No. WO WO93/11755 (particularly on pages 30–33 and 37–41) published on Jun. 24, 1993, the specification of which is also incorporated herein by reference. […] The results obtained in this assay are expressed in EC50 numbers, as they are also in the chimeric receptor transactivation assay. The results of the ligand binding assay are expressed in Ki numbers. (See Cheng et al. Biochemical Pharmacology Vol. 22 pp 3099–3108, expressly incorporated herein by reference.)
as §1

| Serum thyroxine (young db/db mice; 50 mg/kg orally for 14 days, mean +/- SD (n = 7)) [µg/dL] | effect on serum T4 (in words) (young db/db mice; mouse, in vivo) | EC50 (RARβ) [nM] | RAR β efficacy in percentage as compared to the standard compound (RARβ) [%] | RXR β efficacy in percentage as compared to the standard compound (RXRβ [1]) [%] | EC50 (RXRβ [1]) [nM] | effect on serum triglyceride (in words) (diabetic db/db mice; mouse, in vivo) | Ki (RXRβ [2]) [nM] | SMILES | efficacy in activating RXRβ compared with RXRα and RXRγ subtypes (in words) (RXRβ [1]) | Triglycerides (diabetic db/db mice; Day 1, 0 hr (immediately prior to dosing)) [mg/dL] | Triglycerides (diabetic db/db mice; Day 1, 3 hr) [mg/dL] | Triglycerides (diabetic db/db mice; Day 7, 0 hr) [mg/dL] | Triglycerides (diabetic db/db mice; Day 7, 3 hr) [mg/dL] |
| --- | --- | --- | --- | --- | --- | --- | --- | --- | --- | --- | --- | --- | --- |
| 1.30 ± 0.28 | does not affect | 250 | 11 | 46 | 36 | does not affect | 23 | CCOc1cc2c(cc1\C(CC)=C(F)/C=C/C(C)=C/C(=O)O)C(C)(C)CCC2(C)C [Compound 2, (2E,4E,6E)-7-(3-Ethoxy-5,5,8,8-tetramethyl-5,6,7,8-tetrahydronaphthalen-2-yl)-6-fluoro-3-methylnona-2,4,6-trienoic acid] | significantly more effective in activating the RXRβ subtype | 168 ± 74 | 142 ± 94 | 157 ± 106 | 95 ± 33 |
| – | – | 185 | 16 | 24 | 62 | – | 57 | CCCOc1cc2c(cc1\C(C)=C(F)/C=C/C(C)=C/C(=O)O)C(C)(C)CCC2(C)C [Compound 4] | significantly more effective in activating the RXRβ subtype | – | – | – | – |
